Assay [1] has as its target PIK3CA (human), P42336 [H1047R]. Put plainly: Cell-Based Assay. The conditions noted are these: detroit562.
The target of assay [2] is PIK3CD (Human) (UniProt O00329). Put plainly: Cell-Based Assay. Particulars: rat-1.
For assay [3], the target named is PIK3CB (Human) (UniProt P42338). Put plainly: Cell-Based Assay. The conditions noted are these: rat-1.
Assay [4] deals with PIK3CA (human) (UniProt P42336). Put plainly: Cell-Based Assay. Particulars: rat-1.
A further assay deals with PIK3CG (human) (UniProt P48736). The experiment in a line: Enzyme Assay.
PIK3CG (human), sequence (P48736 whole entry, looked up): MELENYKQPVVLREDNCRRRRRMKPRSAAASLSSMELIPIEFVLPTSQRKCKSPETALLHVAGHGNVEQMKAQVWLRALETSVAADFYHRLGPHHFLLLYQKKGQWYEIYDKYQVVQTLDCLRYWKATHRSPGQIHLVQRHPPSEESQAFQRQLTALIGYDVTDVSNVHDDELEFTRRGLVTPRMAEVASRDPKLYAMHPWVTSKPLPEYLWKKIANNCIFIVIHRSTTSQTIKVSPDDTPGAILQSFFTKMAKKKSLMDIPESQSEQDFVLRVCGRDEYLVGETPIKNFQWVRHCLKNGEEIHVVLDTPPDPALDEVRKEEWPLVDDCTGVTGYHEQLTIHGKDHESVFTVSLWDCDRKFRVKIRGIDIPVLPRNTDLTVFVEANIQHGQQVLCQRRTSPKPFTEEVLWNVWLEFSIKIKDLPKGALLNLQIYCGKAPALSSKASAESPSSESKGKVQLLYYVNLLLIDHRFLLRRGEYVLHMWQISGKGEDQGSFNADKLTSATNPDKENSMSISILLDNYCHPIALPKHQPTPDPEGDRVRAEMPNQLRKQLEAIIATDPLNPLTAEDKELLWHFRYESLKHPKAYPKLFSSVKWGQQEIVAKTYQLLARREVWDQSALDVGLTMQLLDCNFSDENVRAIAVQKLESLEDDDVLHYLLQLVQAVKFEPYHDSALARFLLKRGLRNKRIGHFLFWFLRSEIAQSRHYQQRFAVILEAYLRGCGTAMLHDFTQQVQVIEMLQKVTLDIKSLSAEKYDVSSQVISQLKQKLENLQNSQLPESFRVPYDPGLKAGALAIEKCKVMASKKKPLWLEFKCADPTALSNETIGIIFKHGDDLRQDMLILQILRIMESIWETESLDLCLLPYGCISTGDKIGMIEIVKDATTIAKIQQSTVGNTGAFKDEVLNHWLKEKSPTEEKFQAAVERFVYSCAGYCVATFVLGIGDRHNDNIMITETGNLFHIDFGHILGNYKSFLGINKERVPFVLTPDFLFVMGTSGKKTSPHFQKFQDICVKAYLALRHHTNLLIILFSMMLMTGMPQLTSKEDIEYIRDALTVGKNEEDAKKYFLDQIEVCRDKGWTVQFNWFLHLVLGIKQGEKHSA
The target in assay [5] is PIK3CD (Human) (UniProt O00329). Put plainly: Enzyme Assay.
For assay [6], the target named is PIK3CB (Human) (UniProt P42338). Put plainly: Enzyme Assay.
Assay [7] addresses PIK3CA (human) (UniProt P42336). Put plainly: Enzyme Assay.

Among the data in the Kinase Knowledgebase extract (Sharma et al. 2016) are IC50 values, retold here.

Several values for one entry are separate records, joined by “and”; a condition that tells them apart may be missing. Equal entries are not always repeated.

PIK3CA (human), P42336 [H1047R], sequence (P42336 whole entry H1047R, looked up): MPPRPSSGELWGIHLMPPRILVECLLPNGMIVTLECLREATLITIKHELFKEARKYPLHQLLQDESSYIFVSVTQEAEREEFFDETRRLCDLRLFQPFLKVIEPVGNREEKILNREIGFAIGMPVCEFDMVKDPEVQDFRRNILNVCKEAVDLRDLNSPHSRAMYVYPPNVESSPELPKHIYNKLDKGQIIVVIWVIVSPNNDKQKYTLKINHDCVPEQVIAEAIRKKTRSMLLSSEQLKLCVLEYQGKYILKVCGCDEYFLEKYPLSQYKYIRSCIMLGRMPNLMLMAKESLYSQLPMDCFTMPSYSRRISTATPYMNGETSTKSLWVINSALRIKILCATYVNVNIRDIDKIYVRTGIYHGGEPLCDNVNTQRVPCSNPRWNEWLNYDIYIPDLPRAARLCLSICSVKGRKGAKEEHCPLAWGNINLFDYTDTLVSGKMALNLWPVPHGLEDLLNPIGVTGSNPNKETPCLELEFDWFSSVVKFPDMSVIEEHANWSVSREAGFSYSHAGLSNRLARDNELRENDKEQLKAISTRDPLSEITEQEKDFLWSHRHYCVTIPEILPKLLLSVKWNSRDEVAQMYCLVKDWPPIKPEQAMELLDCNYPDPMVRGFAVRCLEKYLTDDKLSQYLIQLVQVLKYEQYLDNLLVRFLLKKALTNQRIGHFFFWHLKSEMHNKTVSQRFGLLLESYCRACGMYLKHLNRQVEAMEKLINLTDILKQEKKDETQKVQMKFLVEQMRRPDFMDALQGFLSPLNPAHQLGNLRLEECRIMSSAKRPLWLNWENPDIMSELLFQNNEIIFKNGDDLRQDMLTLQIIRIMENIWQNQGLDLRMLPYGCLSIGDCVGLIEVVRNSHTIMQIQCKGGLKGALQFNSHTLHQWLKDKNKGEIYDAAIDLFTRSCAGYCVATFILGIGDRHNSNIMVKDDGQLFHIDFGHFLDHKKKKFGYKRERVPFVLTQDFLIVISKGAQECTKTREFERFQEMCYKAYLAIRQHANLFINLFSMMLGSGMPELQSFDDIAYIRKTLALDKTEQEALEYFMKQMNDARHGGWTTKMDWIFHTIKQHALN
PIK3CA (human), sequence (P42336 whole entry, looked up): as the sequence (P42336 whole entry H1047R, looked up) above, with R1047H counted along it
PIK3CB (Human), sequence (P42338 whole entry, looked up): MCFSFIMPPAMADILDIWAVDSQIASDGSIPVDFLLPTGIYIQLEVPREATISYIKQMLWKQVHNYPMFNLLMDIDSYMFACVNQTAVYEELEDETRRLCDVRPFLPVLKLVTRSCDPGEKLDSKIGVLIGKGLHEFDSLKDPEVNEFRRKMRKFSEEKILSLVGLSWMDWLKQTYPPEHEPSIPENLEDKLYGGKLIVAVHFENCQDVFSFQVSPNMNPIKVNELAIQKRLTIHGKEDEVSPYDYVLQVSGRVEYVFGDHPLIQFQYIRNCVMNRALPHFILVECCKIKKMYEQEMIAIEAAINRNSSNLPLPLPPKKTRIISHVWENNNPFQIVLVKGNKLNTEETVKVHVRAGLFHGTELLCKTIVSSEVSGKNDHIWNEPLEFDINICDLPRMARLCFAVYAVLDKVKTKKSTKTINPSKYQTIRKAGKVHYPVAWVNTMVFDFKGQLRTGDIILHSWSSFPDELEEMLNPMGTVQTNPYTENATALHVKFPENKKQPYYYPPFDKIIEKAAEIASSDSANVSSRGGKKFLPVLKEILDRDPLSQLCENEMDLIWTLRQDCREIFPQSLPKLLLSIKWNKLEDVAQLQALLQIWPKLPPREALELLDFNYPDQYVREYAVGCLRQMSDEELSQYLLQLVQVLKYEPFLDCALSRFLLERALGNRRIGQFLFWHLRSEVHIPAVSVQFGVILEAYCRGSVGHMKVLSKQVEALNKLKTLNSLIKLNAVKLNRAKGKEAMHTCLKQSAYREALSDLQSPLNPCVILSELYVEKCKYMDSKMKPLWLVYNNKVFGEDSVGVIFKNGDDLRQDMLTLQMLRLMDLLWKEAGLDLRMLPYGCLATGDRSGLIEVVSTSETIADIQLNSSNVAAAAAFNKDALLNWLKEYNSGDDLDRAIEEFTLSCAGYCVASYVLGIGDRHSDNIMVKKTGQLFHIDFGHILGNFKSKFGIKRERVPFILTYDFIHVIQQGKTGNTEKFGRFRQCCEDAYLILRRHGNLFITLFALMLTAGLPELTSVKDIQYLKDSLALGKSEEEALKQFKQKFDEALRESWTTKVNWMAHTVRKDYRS
PIK3CD (Human), sequence (O00329 whole entry, looked up): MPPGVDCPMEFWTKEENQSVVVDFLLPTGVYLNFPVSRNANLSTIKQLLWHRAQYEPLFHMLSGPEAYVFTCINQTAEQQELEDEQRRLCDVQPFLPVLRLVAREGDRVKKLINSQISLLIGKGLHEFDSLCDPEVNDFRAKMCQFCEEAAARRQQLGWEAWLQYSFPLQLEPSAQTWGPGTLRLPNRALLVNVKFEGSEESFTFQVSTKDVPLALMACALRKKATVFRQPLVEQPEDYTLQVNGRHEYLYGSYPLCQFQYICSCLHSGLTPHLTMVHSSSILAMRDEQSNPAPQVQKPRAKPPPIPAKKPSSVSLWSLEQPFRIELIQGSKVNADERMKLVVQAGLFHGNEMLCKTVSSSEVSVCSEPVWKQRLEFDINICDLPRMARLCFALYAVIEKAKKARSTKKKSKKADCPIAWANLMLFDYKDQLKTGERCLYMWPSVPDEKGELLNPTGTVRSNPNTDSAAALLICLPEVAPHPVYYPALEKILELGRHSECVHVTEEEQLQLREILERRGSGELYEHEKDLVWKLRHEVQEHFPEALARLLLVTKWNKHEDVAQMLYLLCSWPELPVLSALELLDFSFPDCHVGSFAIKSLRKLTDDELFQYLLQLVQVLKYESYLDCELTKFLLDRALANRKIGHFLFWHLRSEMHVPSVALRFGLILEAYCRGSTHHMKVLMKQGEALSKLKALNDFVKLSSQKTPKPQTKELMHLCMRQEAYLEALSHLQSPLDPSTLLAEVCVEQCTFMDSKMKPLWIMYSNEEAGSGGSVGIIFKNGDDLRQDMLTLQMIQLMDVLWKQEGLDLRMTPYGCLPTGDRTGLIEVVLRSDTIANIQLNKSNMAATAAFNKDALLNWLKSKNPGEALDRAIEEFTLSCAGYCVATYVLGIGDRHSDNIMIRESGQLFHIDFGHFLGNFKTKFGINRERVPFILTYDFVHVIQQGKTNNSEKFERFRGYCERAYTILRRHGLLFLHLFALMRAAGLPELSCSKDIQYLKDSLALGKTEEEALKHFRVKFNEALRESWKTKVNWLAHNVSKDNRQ

As to `Nc1cc(C(F)(F)F)c(-c2cc(N3CCN(c4ccccc4)C3=O)nc(N3CCOCC3)n2)cn1`, the concentration for half-maximal inhibition (IC50) in assay [1] is 4.55 µM and 2.81 µM; on PIK3CD (Human) [2] it was 1.47 µM; against PIK3CB (Human) [3], 1.58 µM; at PIK3CA (human) [4], 0.606 µM; against PIK3CG (human), 7.35 µM; on PIK3CD (Human) [5], 1.98 µM. In addition, the half-inhibitory concentration (IC50) against PIK3CB (Human) [6] was 0.236 µM; on PIK3CA (human) [7], 0.091 µM.

Consider `CC[C@@H]1[C@@H](c2cccc(OC)c2)OC(=O)N1c1cc(-c2cnc(N)nc2C(F)(F)F)nc(N2CCOCC2)n1`, for which the IC50 at PIK3CG (human) turned out to be 7 µM.

For the compound `Nc1cc(C(F)(F)F)c(-c2cc(N3CCCCC3=O)nc(N3CCOCC3)n2)cn1`, the concentration for half-maximal inhibition (IC50) in assay [1] was 4.41 µM and 3.08 µM; against PIK3CD (Human) [2] it was 1.04 µM; on PIK3CB (Human) [3] it was 1.54 µM; against PIK3CA (human) [4] it was 0.369 µM; on PIK3CG (human), 3.36 µM; at PIK3CD (Human) [5], 0.848 µM. Moreover, the values for the IC50 at PIK3CB (Human) [6] and against PIK3CA (human) [7] were 0.237 µM and 0.094 µM, respectively.

For `Nc1cc(C(F)(F)F)c(-c2cc(N3CCC(=O)CC3)nc(N3CCOCC3)n2)cn1`, the half-maximal inhibitory concentration (IC50) came to 3.3 µM in assay [1]; 6.54 µM on PIK3CD (Human) [2]; 5.31 µM at PIK3CB (Human) [3]; 1.73 µM against PIK3CA (human) [4]; 4.46 µM at PIK3CG (human); 1.22 µM against PIK3CD (Human) [5]. Besides, the results for the IC50 at PIK3CB (Human) [6] and against PIK3CA (human) [7] were 1.07 µM and 0.327 µM, respectively.

As for `Nc1ncc(-c2cc(N3C(=O)O[C@@H](c4ccc(OCCO)cc4)[C@@H]3CO)nc(N3CCOCC3)n2)c(C(F)(F)F)n1`, the half-maximal inhibitory concentration (IC50) on PIK3CD (Human) [2] and on PIK3CB (Human) [3] was less than 0.003 µM in each case.

Take `CC[C@H]1[C@H](c2ccc(OC)cc2)OC(=O)N1c1cc(-c2cnc(N)nc2C(F)(F)F)nc(N2CCOCC2)n1`: the 50% inhibitory concentration (IC50) was determined as 5.8 µM at PIK3CG (human) and 0.096 µM on PIK3CB (Human) [6].

As for `Nc1ncc(-c2cc(N3CCOCC3)nc(N3CCOCC3)n2)c(C(F)(F)F)n1`, the IC50 was determined as 0.139 µM on PIK3CD (Human) [2], 0.315 µM at PIK3CG (human) and 0.024 µM against PIK3CD (Human) [5].

`COCCOc1ccc([C@@H]2OC(=O)N(c3cc(-c4cnc(N)nc4C(F)(F)F)nc(N4CCOCC4)n3)[C@H]2CO)cc1` showed an IC50 against PIK3CD (Human) [2] of 0.004 µM.

For the compound `C[C@H]1[C@H](c2nccs2)OC(=O)N1c1cc(-c2cnc(N)nc2C(F)(F)F)nc(N2CCOCC2)n1`, the IC50 in assay [1] is 0.44 µM and 0.598 µM.

As to `Nc1ncc(-c2cc(N3CCOC(c4ccccc4)C3)nc(N3CCOCC3)n2)c(C(F)(F)F)n1` (configuration not stated), the concentration for half-maximal inhibition (IC50) in assay [1] is 2.39 µM and 1.37 µM; on PIK3CD (Human) [2], 0.105 µM; at PIK3CB (Human) [3] it was greater than 10 µM; against PIK3CA (human) [4] it was greater than 10 µM; against PIK3CG (human), 0.17 µM; on PIK3CD (Human) [5], 0.11 µM. The figures for the half-inhibitory concentration (IC50) against PIK3CB (Human) [6] and at PIK3CA (human) [7] were 0.027 µM and 0.015 µM, respectively.
